“And” between values parts separate entries of the source, which are not always exact repeats. Equal entries are not always repeated.
System: 188146-221-R-J1-PDC complex spheroid viability
Assay: Anticancer human tumor 188146-221-R-J1-PDC patient-derived colon adenocarcinoma cell line growth inhibition [POLQ]
Settings: for viability, T/C: stronger effect = lower value
Experimental: Multicellular complex tumor spheroid response to Polymerase (POL) inhibitors (novobiocin, ART-558, RP6685) in combination with a variety of drugs and investigational agents in selected tumor cell lines
The POL inhibitors (novobiocin, ART-558, and RP6685) were evaluated both individually and in combination with standard of care and investigational anticancer small molecules within a complex spheroid model of solid tumors. . Complex spheroids include a stromal component modeled by human endothelial cells (HUVEC) and fibroblasts modeled by human mesenchymal stem cells (MSCs). The concentration ranges selected for each drug and investigational agent were based upon clinically achievable concentrations if the clinical Cmax of the agent was known.
Compounds. The drugs and investigational agents: novobiocin (NSC847541), ART-558 (NSC835418), RP-6685 (NSC848927), peposertib (NSC802822), ceralasertib (NSC780249), elimusertib (NSC800525), camonsertib (NSC841442), AZD-1390 (NSC803789), olaparib (NSC753686), talazoparib (NSC767125), rucaparib (NSC756644), sotorasib (NSC818433), MRTX-1133 (NSC836407), SN-38 (NSC673596), topotecan (NSC609699), epotoside (NSC141540), doxorubicin (NSC123127), gemcitabine (NSC613327), 5-fluorouracil (NSC19893), paclitaxel (NSC125973), vemurafenib (NSC761431), MSA-2 (NSC828583), SN-011 (NSC837082), adavosertib (NSC754352), prexasertib (NSC758257), carboplatin (NSC241240) and oxaliplatin (NSC266046), were obtained from the National Cancer Institute (NCI) Developmental Therapeutics Program Chemical Repository (21). The FDA-approved anticancer drug set is available from the Developmental Therapeutics Program at https://dtp.cancer.gov/organization/dscb/obtaining/. […] The stock solutions were prepared in dimethyl sulfoxide (DMSO, Sigma-Aldrich, St. Louis, MO, cat. D2650), except for the platinum compounds which were prepared in saline (Quality Biological, Gaithersburg, MD, cat. 114-055-101), at 800-fold the tested concentration and stored at -70 degrees C prior to their use. All drugs and investigational agents were tested over a range starting from a high concentration at or near the clinical Cmax and decreasing in half-log increments. If the clinical Cmax for an agent had not been determined, the highest concentration tested was 10 microM, except for SN-38, which was tested at a high concentration of 1 microM.
Cell Culture. All cells were maintained in an incubator at 37 degrees C and 5% CO2 with 95% humidity. The PDC lines were cultured according to standard operating procedures established by the NCI PDMR (https://pdmr.cancer.gov). Table 3 of the manuscript, lists the cell lines along with the number of the three cell types plated to form the mct-spheroids and media for tumor cell growth. After thawing, all PDC lines, except 997537-175-T-J1-PDC and 415267-285-R-J2-PDC, were cultured in Matrigel-coated flasks prepared with a working solution of 1X Ham's F-12 nutrient mix, without supplementation (Thermo Fisher Scientific, cat. 11765054), 100 U/mL penicillin-streptomycin (Thermo Fisher Scientific, cat. 15140122), and 2.5% Matrigel (Corning Inc., Corning, NY, cat. 354248) for the first three passages. The two PDC lines 997537-175-T-J1-PDC and 415267-285-R-J2-PDC were cultured on uncoated flasks. The 857933-349-R-J2-PDC line was cultured in 6C/Colon 1B media containing advanced DMEM/F-12 (Thermo Fisher Scientific, cat. 12634028), 10 mM HEPES (Thermo Fisher Scientific, cat. 15630080), 1X GlutaMAX supplement (Thermo Fisher Scientific, cat. 35050061), 0.1 mg/mL primocin (InvivoGen, San Diego, CA, cat. ant-pm-2), 10% defined fetal bovine serum, heat inactivated (HyClone Laboratories Inc., Logan, UT, cat. SH30070.03HI), 50% L-WRN conditioned media (ATCC, cat. CRL-3276), 1.25 mM N-Acetyl-L-cysteine (Sigma-Aldrich, cat. A9165), 10 mM nicotinamide (Sigma-Aldrich, cat. N0636), 1X B-27 supplement (Thermo Fisher Scientific, cat. 17504044), 1X N-2 supplement (Thermo Fisher Scientific, cat. […]
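Further: spheroids exposed to compounds for seven days.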
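Wherever viability, T/C is given: 100% = DMSO vehicle control viability.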

CCc1c2c(nc3ccc(O)cc13)-c1cc3c(c(=O)n1C2)COC(=O)[C@]3(O)CC was tested, and the viability, T/C (compound 0.00316 µM) was 98.1% and 104% and 88.5%, the viability, T/C (compound 0.01 µM) was 73.8% and 73.1% and 74.3% and the viability, T/C (compound 0.0316 µM) was 35.4% and 45.1% and 29.7%. For the same molecule, the viability, T/C (compound 0.1 µM) was 18% and 23.1% and 19.6%, the viability, T/C (compound 0.316 µM) was 12% and 12.2% and 13.3% and the viability, T/C (compound 1 µM) was 6.11% and 8.93% and 6.3%. For the same molecule, the IC50 (curve of compound) was 0.0209 µM and 0.0251 µM and 0.019 µM.
In the case of O=C(Nc1ccc(O)c(NS(=O)(=O)c2ccc(F)cc2)c1)c1ccc(-c2ccccc2)cc1 + Cc1cccc(N(C)C(=O)C2C(O)CCN2c2nc(C)cc(C(F)(F)F)c2C#N)c1, the IC50 (curve of first compound, second compound 0.0316 µM) is reported as > 10 µM, the IC50 (curve of first compound, second compound 0.1 µM) is reported as > 10 µM and the IC50 (curve of first compound, second compound 0.316 µM) is reported as > 10 µM. For the same molecule, the IC50 (curve of first compound, second compound 1 µM) was > 10 µM, the IC50 (curve of first compound, second compound 3.16 µM) was > 10 µM and the IC50 (curve of first compound, second compound 10 µM) was > 10 µM. For the same molecule, the viability, T/C (second compound 0.0316 µM, first compound 0.0316 µM) was 100%, the viability, T/C (second compound 0.0316 µM, first compound 0.1 µM) was 103% and the viability, T/C (second compound 0.0316 µM, first compound 0.316 µM) was 109%. The viability, T/C (second compound 0.0316 µM, first compound 1 µM) was 107%, the viability, T/C (second compound 0.0316 µM, first compound 3.16 µM) was 100% and the viability, T/C (second compound 0.0316 µM, first compound 10 µM) was 50.2%. For the same molecule, the viability, T/C (second compound 0.1 µM, first compound 0.0316 µM) was 103%, the viability, T/C (second compound 0.1 µM, first compound 0.1 µM) was 92.1% and the viability, T/C (second compound 0.1 µM, first compound 0.316 µM) was 93.5%. The viability, T/C (second compound 0.1 µM, first compound 1 µM) was 87.8%, the viability, T/C (second compound 0.1 µM, first compound 3.16 µM) was 106% and the viability, T/C (second compound 0.1 µM, first compound 10 µM) was 60.6%. For the same molecule, the viability, T/C (second compound 0.316 µM, first compound 0.0316 µM) was 102%, the viability, T/C (second compound 0.316 µM, first compound 0.1 µM) was 98.1% and the viability, T/C (second compound 0.316 µM, first compound 0.316 µM) was 103%. The viability, T/C (second compound 0.316 µM, first compound 1 µM) was 80.2%, the viability, T/C (second compound 0.316 µM, first compound 3.16 µM) was 83.2% and the viability, T/C (second compound 0.316 µM, first compound 10 µM) was 75.2%. The viability, T/C (second compound 1 µM, first compound 0.0316 µM) was 98.5%, the viability, T/C (second compound 1 µM, first compound 0.1 µM) was 90.9% and the viability, T/C (second compound 1 µM, first compound 0.316 µM) was 92.6%. The viability, T/C (second compound 1 µM, first compound 1 µM) was 86.9%, the viability, T/C (second compound 1 µM, first compound 3.16 µM) was 84.1% and the viability, T/C (second compound 1 µM, first compound 10 µM) was 65.2%. The viability, T/C (second compound 3.16 µM, first compound 0.0316 µM) was 96%, the viability, T/C (second compound 3.16 µM, first compound 0.1 µM) was 92.3% and the viability, T/C (second compound 3.16 µM, first compound 0.316 µM) was 89.5%. The viability, T/C (second compound 3.16 µM, first compound 1 µM) was 99%, the viability, T/C (second compound 3.16 µM, first compound 3.16 µM) was 90.2% and the viability, T/C (second compound 3.16 µM, first compound 10 µM) was 52.1%. It also gave a viability, T/C (second compound 10 µM, first compound 0.0316 µM) of 92.3%, a viability, T/C (second compound 10 µM, first compound 0.1 µM) of 91.3% and a viability, T/C (second compound 10 µM, first compound 0.316 µM) of 101%. It also gave a viability, T/C (second compound 10 µM, first compound 1 µM) of 87.3%, a viability, T/C (second compound 10 µM, first compound 3.16 µM) of 79.6% and a viability, T/C (second compound 10 µM, first compound 10 µM) of 51.2%.

— PubChem BioAssay AID1963851 (Molecular Pharmacology Branch, DTP, NCI, 2024)
